Results on 26 molecules are retold here after patent US8178683B2, “Antimicrobial ortho-fluorophenyl oxazolidinones for treatment of bacterial infections” (Micurx Pharmaceuticals, Inc., priority 2007, dated 2012).

Assay [1] relates to methicillin-resistant Staphylococcus aureus (MRSA). Nature of the assay: Minimum inhibitory concentration (MIC) against MRSA clinical isolate. The class given is cell-based. The note with it: clinical isolate of MRSA from the Massachusetts General Hospital. The text has this: Compounds of this invention can have useful activity against a variety of pathogenic microorganisms. The in vitro activity of compounds of this invention can be assessed by standard testing procedures such as the determination of minimum inhibitory concentration (MIC) by agar dilution as described in “Approved Standard. Methods for Dilution Antimicrobial Susceptibility Tests for Bacteria That Grow Aerobically”, 3rd. ed., published 1993 by the National Committee for Clinical Laboratory Standards, Villanova, Pa., USA. Minimum inhibitory concentration (MIC) refers to the lowest concentration of drug (μg/mL) that inhibits visible growth of the organism. Lower MIC values indicate a higher antibacterial activity. Typically, compounds of present invention have useful potency against Gram-positive or Gram-negative pathogens with MIC values of ≦16 μg/mL. The useful activity of compounds of the present invention against a clinical isolate of methicillin-resistant Staphylococcus aureus (MRSA; from the Massachusetts General Hospital, USA) is illustrated by the MIC data of Table 1.

Assay [2] deals with T1, Human monoamine oxidase (MOA) A type enzyme (Homo sapiens, UniProt P21397).
T1 construct: purchased BD Gentest
T1 sequence (P21397 1-527): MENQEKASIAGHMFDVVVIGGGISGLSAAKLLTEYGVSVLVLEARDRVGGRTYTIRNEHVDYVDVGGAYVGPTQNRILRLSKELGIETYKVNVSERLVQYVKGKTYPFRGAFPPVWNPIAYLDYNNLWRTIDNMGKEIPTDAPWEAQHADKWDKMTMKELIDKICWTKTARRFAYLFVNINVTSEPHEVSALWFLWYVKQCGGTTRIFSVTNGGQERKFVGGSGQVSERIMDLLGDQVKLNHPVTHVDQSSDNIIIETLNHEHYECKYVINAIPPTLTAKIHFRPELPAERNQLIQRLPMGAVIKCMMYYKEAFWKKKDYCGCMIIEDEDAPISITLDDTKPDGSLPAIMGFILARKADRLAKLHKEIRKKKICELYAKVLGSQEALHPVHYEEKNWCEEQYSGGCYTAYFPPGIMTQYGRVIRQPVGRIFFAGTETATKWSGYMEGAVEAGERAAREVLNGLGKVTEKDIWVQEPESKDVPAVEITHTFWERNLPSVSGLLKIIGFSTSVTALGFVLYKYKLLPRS
Nature of the assay: MAO-Glo monoamine oxidase A enzyme inhibition assay. In kind it is biochemical. The note with it: human MAO A enzyme (BD Gentest), MAO-Glo kit; Linezolid value of side-by-side test in parenthesis. The method, then:
Human monoamine oxidase (MOA) A type enzyme inhibition activity for select compounds was measured using a commercial MAO assay kit MAO-Glo™ from Promega Co. (USA). The assay was performed as described in the company's technical bulletin “MAO-Glo™ Assay”. The protocol involves an incubation of the MAO A enzyme (BD Gentest™) with a luminogenic MAO substrate to produce an enzymatic product which is converted to luciferin by a coupled reaction. The released luciferin undergoes further transformation to generate light that is detected and measured. The amount of the light is directly proportional to the activity of MAO. Percent inhibition at several concentrations is established relative to the uninhibited control rate, and the IC50 (μg/mL) values are calculated. […] The MAO inhibition data for select compound of this invention are illustrated in the Table 2 below.

Assay [3] concerns human CD34+ bone marrow cells. Nature of the assay: Myelosuppressive potential: bone marrow CD34+ cell growth inhibition, luminescence assay. In kind it is cell-based. The note with it: 9-10 days at 37° C., Linezolid value of side-by-side test in parenthesis; for IC50: Homo sapiens, CD34+ cell. The method, then:
Myelosuppressive potential (hematopoietic or bone marrow toxicity) was evaluated using human CD34^+ bone marrow cells, generally following methods described by Leach in International Patent Publication No. WO 2006/097828. Thus, an oxazolidinone compound was incubated with fresh human bone marrow cells for 9-10 days at 37° C. in 5% CO2 atmosphere. At end of the incubation period, the bone marrow toxicity was accessed by measuring inhibition (IC50, μg/mL) of CD34^+ cell growth using a luminescence assay. Lower IC50 value indicates a higher myelosuppression potential with enhanced probability of undesired adverse effects in vivo, while a higher IC50 value indicates reduced bone marrow toxicity. The CD34^+ inhibition data for representative compounds of this invention are illustrated in the Table 2 below.

The structures appear in SMILES notation. Values after ≈ are worked out from the molar mass of the structure shown. Values joined by “and” are separate entries in the source; they are usually repeats but may differ in a detail not shown here. Equal entries are not always repeated.

In assay [1], `COC(=O)NC[C@H]1CN(c2ccc(-c3ccc(-c4nnnn4C)nc3)c(F)c2F)C(=O)O1` [Example 23] returned a minimum inhibitory concentration (MIC) of 1 µg/mL (≈ 2.25 µM).
Consider `O=C1C=CN(c2ccc(N3C[C@H](Cn4ccnn4)OC3=O)cc2F)CC1` [Example 25, reference compound], for which the figures for the concentration for half-maximal inhibition (IC50) in assay [2] and in assay [3] were 5.04 µM and 2.6 µg/mL (≈ 7.28 µM), respectively.
Regarding `O=C1C=CN(c2ccc(N3C[C@H](Cn4ccnn4)OC3=O)c(F)c2F)CC1` [Example 11], the lowest concentration to inhibit growth in assay [1] (MIC) was 1 µg/mL (≈ 2.66 µM).
Take `COC(=O)NC[C@H]1CN(c2ccc(N3C=CC(=O)CC3)c(F)c2F)C(=O)O1` [Example 13]: the lowest concentration to inhibit growth in assay [1] (MIC) was 1 µg/mL (≈ 2.62 µM). In addition, the IC50 in assay [2] was 44.8 µM; in assay [3] it was 6.3 µg/mL (≈ 16.5 µM).
In assay [1], `Cc1cc(NC[C@H]2CN(c3cc(F)c(N4C=CC(=O)CC4)c(F)c3F)C(=O)O2)no1` [Example 6] registered a minimal inhibitory concentration (MIC) of 4 µg/mL (≈ 9.47 µM).
The same measure, in the same setting: as for `O=C1C=CN(c2c(F)cc(N3C[C@H](Cn4ccnn4)OC3=O)c(F)c2F)CC1` [Example 3], the figure is 1 µg/mL (≈ 2.54 µM).
On the same count and under the same terms, as for `Cc1cn(C[C@H]2CN(c3cc(F)c(N4C=CC(=O)CC4)c(F)c3F)C(=O)O2)nn1` [Example 8], the figure is 4 µg/mL (≈ 9.82 µM).
In turn, `CC(=O)NC[C@H]1CN(c2cc(F)c(N3CCOCC3)c(F)c2F)C(=O)O1` [Example 26, reference compound] showed a minimum inhibitory concentration (MIC) in assay [1] of 2 µg/mL (≈ 5.36 µM).
On the same count and under the same terms, as for `O=C1C=CN(c2ccc(N3C[C@H](CNc4ccon4)OC3=O)c(F)c2F)CC1` [Example 14], the figure is 0.25 µg/mL (≈ 0.64 µM); as for `Cn1nnnc1-c1ccc(-c2ccc(N3C[C@H](CO)OC3=O)c(F)c2F)cn1` [Example 22], 1 µg/mL (≈ 2.58 µM); as for `O=C1C=CN(c2c(F)cc(N3C[C@H](Cn4cc(F)nn4)OC3=O)c(F)c2F)CC1` [Example 20], 4 µg/mL (≈ 9.72 µM).
In assay [1], `CC(=O)NC[C@H]1CN(c2ccc(N3CCOCC3)c(F)c2)C(=O)O1` [Linezolid, linezolid, reference compound] registered a minimum inhibitory concentration (MIC) of 2 µg/mL (≈ 5.93 µM). Besides, the half-maximal inhibitory concentration (IC50) in assay [2] was 11.3 µM; in assay [3] it was 7.9 µg/mL (≈ 23.4 µM). The “CD34 IC50” value in assay [3] is “Range 7.9-14.0 μg/mL”; in assay [3] (listed as Lin.) it was 14.0 µg/mL and 8.1 µg/mL.
On to `O=C1C=CN(c2cc(F)c(N3C[C@H](Cn4ccnn4)OC3=O)cc2F)CC1` [Example 18], for which the minimal inhibitory concentration (MIC) in assay [1] is 4 µg/mL (≈ 10.7 µM).
As for `COC(=O)NC[C@H]1CN(c2cc(F)c(N3C=CC(=O)CC3)c(F)c2F)C(=O)O1` [Example 4], in assay [1], the MIC worked out at 2 µg/mL (≈ 5.01 µM). Besides, the values for the half-inhibitory concentration (IC50) in assay [2] and in assay [3] were 54.3 µM and 17.7 µg/mL (≈ 44.3 µM), respectively.
In assay [1], `CC(=O)NC[C@H]1CN(c2cc(F)c(N3C=CC(=O)CC3)cc2F)C(=O)O1` [Example 17] had an MIC of 4 µg/mL (≈ 10.9 µM).
`O=C1C=CN(c2c(F)cc(N3C[C@H](CO)OC3=O)c(F)c2F)CC1` [Example 1] came in with an MIC in assay [1] of 4 µg/mL (≈ 11.7 µM).
The same measure, in the same setting: as for `O=C1C=CN(c2ccc(N3C[C@H](CO)OC3=O)c(F)c2F)CC1` [Example 10], the figure is 2 µg/mL (≈ 6.17 µM).
With `O=C1C=CN(c2c(F)cc(N3C[C@H](CNc4ccon4)OC3=O)c(F)c2F)CC1` [Example 5], the MIC in assay [1] amounted to 1 µg/mL (≈ 2.45 µM). The half-maximal inhibitory concentration (IC50) in assay [2] was 30.1 µM; in assay [3] it was 15.7 µg/mL (≈ 38.4 µM).
On the same counts, the results for `CC(=O)NC[C@H]1CN(c2cc(F)c(N3C=CC(=O)CC3)c(F)c2F)C(=O)O1` [Example 2] are 2 µg/mL (≈ 5.22 µM), 148 µM and 13.2 µg/mL (≈ 34.4 µM).
As for `N#Cc1cn(C[C@H]2CN(c3cc(F)c(N4C=CC(=O)CC4)c(F)c3F)C(=O)O2)nn1` [Example 19], in assay [1], the minimum inhibitory concentration (MIC) worked out at 4 µg/mL (≈ 9.56 µM).
Same read-out and setting: as for `CC(=O)NC[C@H]1CN(c2ccc(N3C=CC(=O)CC3)c(F)c2F)C(=O)O1` [Example 9], the figure is 1 µg/mL (≈ 2.74 µM).
On the same count and under the same terms, as for `Cc1cn(C[C@H]2CN(c3ccc(N4C=CC(=O)CC4)c(F)c3F)C(=O)O2)nn1` [Example 12], the figure is 4 µg/mL (≈ 10.3 µM); as for `CCC(=O)NC[C@H]1CN(c2cc(F)c(N3C=CC(=O)CC3)c(F)c2F)C(=O)O1` [Example 7], 2 µg/mL (≈ 5.03 µM); as for `Cn1nnc(-c2ccc(-c3cc(F)c(N4C[C@H](Cn5ccnn5)OC4=O)cc3F)cn2)n1` [Example 21], 2 µg/mL (≈ 4.55 µM).
As for `CCC(=O)NC[C@H]1CN(c2ccc(N3C=CC(=O)CC3)c(F)c2F)C(=O)O1` [Example 15], the minimum inhibitory concentration (MIC) in assay [1] stood at 2 µg/mL (≈ 5.27 µM).
Still for that read-out and setting: as for `O=C1C=CN(c2ccc(N3C[C@H](COc4ccon4)OC3=O)c(F)c2F)CC1` [Example 16], the figure is 4 µg/mL (≈ 10.2 µM).

A word on the MIC: it is the lowest concentration found to suppress growth. Low values mean a more susceptible organism, high ones a less susceptible organism. By IC50 is commonly meant the point on the concentration scale where inhibition reaches its midpoint.
